Source: patent EP3546478A1, “NEW PEPTIDE DERIVATIVES OF PLATELET DERIVED GROWTH FACTOR (PDGF), A METHOD FOR THEIR PREPARATION, PHARMACEUTICAL COMPOSITIONS CONTAINING THEM AND APPLICATION OF THESE COMPOSITIONS” (Uniwersytet Gdanski, priority 2018, dated 2019)
Positions of bridges follow the written chain, without caps; N, C: chain ends. Residues, ends and D or L forms follow the SMILES beside them. Chains are numbered I, II in the order given. No end group written: not given here.

Legend:
46BR.1N fibroblasts = format: cell-based, human; details: 0.1, 1 and 10 µg / ml after 48h and 72h
Protocol: (§1) The effect of PDGF derivatives (PDGF1, […]1, PDGF2, PGDF3, PDGF2_NE, PDGF2-HTT) on the proliferation of immortalized human 46BR.1N skin fibroblast cells, HaCaT skin keratinocytes (for each peptide 4 experimental cycles for HaCaT and 46BR.1N cells) and primary skin fibroblasts (for each peptide 4 experimental cycles, usingcells isolated from 4 patients) was investigated. Their cytotoxicity to these cells was also checked. The cells were incubated with peptides previously dissolved in double-distilled, sterile water. Proliferation tests (XTT test) were performed at the following concentrations: 0.01, 0.1, 1, 10, 25, 50, 100 and 150 μg / ml. Cytotoxicity tests (LDH) were performed at concentrations of 50, 100 and 150 μg / ml.

HaCaT keratinocytes = format: cell-based, human
Protocol: as §1

primary skin fibroblasts = experiment: XTT proliferation test; format: cell-based, human
Protocol: as §1

[1] = tested on: human primary dermal fibroblasts; experiment: Chemotaxis through culture inserts, calcein fluorometry; format: cell-based; details: 1 µg / ml, 24 hours of incubation
Protocol: The effect of the compound PDGF2 compound at a concentration of 1 µg / ml on the chemotaxis of HaCaT keratinocytes, and the effect of PDGF2 and PDGF3 at a concentration of 1 µg / ml on the chemotaxis of primary fibroblasts, were investigated. Cells were "starved" in serum-free medium for 24 hours before the experiment. They were then seeded in serum-free medium in culture inserts (Grainer bio one, 8 µm) placed in a 24-well plate. Serum-free medium containing PDGF2 or PDGF3 was added to the wells. Controls in the test were: serum free medium and medium containing 10% FBS. After 24 hours of incubation, the cells were stained with calcein. Cells that migrated through the insert membrane were then detached with trypsin and a fluorometric measurement was performed (excitation wavelength 485, emission wavelength 520 nm).

dendritic cells = format: cell-based, human
Protocol: Tests were conducted on human peripheral blood mononuclear cells (PBMC), isolated from "buffy coats" using a ficoll density gradient (histopaque, Sigma). Following two wash steps (in PBS), erythrocyte lysis and cell counting (cell counter, Bio-Rad), the PBMCs were seeded onto a 24-well culture plate at a density of 1 mln cells/1 ml of RPMI 1640 (P/S, 10% FBS)/well. Thecells were then allowed to adapt to the culture conditions for the next 24h. After cell resting, PDGF2 was added to the wells in a final concentration of 1.0 µg/ml, and the cells were incubated for the next 48h under appropriate conditions (37°C, 5% CO2). The untreated cells constituted a negative control, whereas cells stimulated with LPS (1 µg/ml) and PHA (2,5 µg/ml) were a positive control. After incubation, the PBMCs were collected, washed with PBS, counted and prepared for flow cytometry analysis under the following conditions: 10^4 cells/ 100µl were stained with monoclonal, fluorochrome-stained antibodies (anti-CD3, CD4, CD8, CD16, CD56, CD25, CD69, CD71, HLA-DR, CD11c, CD80, CD83). Following 30 min of incubation at RT in the dark, the cells were analyzed using a flow cytometer (LSRFortessa, BD).
An analysis of peptide impact on the activity of immune cells was performed on human PBMCs. These cells were incubated with PDGF2 (1.0 ug/ml) for 48h and the effects of stimulation were evaluated by flow cytometry. […]

[2] = XTT test, 0.01 to 150 µg / ml tested, result in words

Compound	increase in proliferation relative to control (46BR.1N fibroblasts)	increase in proliferation relative to control (HaCaT keratinocytes; 0.1, 1, 10 and 25 µg / ml after 48h, 0.1, 1, 10, 25, 50, 100 and 150 µg / ml after 72h)	inhibition of proliferation (HaCaT keratinocytes; [2])	increase in proliferation relative to control (primary skin fibroblasts; 1, 10, 25 and 50 µg / ml after 48h and 72h)	inhibition of proliferation (primary skin fibroblasts; [2])	effect on chemotaxis [1]	activation of dendritic cells (CD80, CD83) (dendritic cells)
CC[C@H](C)[C@H](NC(=O)[C@H](CC(C)C)NC(=O)[C@@H](N)CCCNC(=N)N)C(=O)N[C@@H](CC(=O)O)C(=O)N[C@@H](CCCNC(=N)N)C(=O)N[C@H](C(=O)N[C@@H](CC(N)=O)C(=O)N[C@@H](C)C(=O)N[C@@H](CC(N)=O)C(=O)N[C@@H](Cc1ccccc1)C(=O)N[C@@H](CC(C)C)C(=O)NCCCC[C@H](NC(=O)[C@H](CCCNC(=N)N)NC(C)=O)C(=O)N[C@H](C(=O)N[C@@H](CCC(=O)O)C(=O)N[C@H](C(=O)N[C@H](C(=O)N[C@@H](CCCNC(=N)N)C(=O)N[C@@H](CCCCN)C(=O)N[C@@H](CCCCN)C(=O)N1CCC[C@H]1C(=O)N[C@H](C(=O)N[C@@H](Cc1ccccc1)C(N)=O)[C@@H](C)CC)C(C)C)[C@@H](C)CC)[C@@H](C)CC)[C@@H](C)O [PDGF3] (I: Ac-RKIEIVRKKPIF-NH2 / II: H-RLIDRTNANFL; amide I:2-II:C)	20-40%	20-120%	does not inhibit the proliferation	10-60%	does not inhibit the proliferation	inhibit the chemotaxis	–
RLIDRTNANFL-NH2 [PDGF2, R^1L^2I^3D^4R^5T^6N^7A^8N^9F^10L^11-NH2]	–	–	–	–	–	–	not activated
